Assay results reported in US8227228B2, “D-amino acid oxidase, and method for production of L-amino acid, 2-oxo acid, or cyclic imine” (priority 2005, dated 2012).

How the values were obtained:
[1] = target: T1, D-amino acid oxidase (Sungouiella intermedia, UniProt A0A1L0GHW3); assay: Substrate specificity of purified D-amino acid oxidase; type: biochemical, Candida intermedia NBRC0761; conditions: purified enzyme; activity to D-Phe as 100%; each substrate in place of DL-phenylalanine
Experimental: The activity of the D-amino acid oxidase was measured by quantifying hydrogen peroxide produced in the reaction by an enzyme method using peroxidase. Hydrogen peroxide was quantified by an enzyme method as follows. 250 μl of a chromogenic solution containing 50 mM DL-phenylalanine, 0.80 mM 4-aminoantipyrine, 1.31 mM N-ethyl-N-(2-hydroxy-3-sulfopropyl)-m-toluidine, 6 u/ml peroxidase (manufactured by TOYOBO Inc.) and 50 mM Tris-hydrochloric acid buffer (pH 8.0) was mixed with 50 μl of an appropriately diluted enzyme solution, and the mixture was reacted at 30° C. for 30 min. Absorption at 555 nm was measured, and the amount of hydrogen peroxide produced in the reaction mixture was quantified based on the analytical curve prepared in advance. The amount of the enzyme that produced 1 μmol of hydrogen peroxide in 1 minute was defined as 1 unit. In addition, protein was quantified according to a Bradford method using BSA as a standard protein. The specific activity of the purified D-amino acid oxidase was 44.8 units/mg protein (30° C.).
(§1) Moreover, the D-amino acid oxidase activity for examining the properties of the enzyme shown below was measured as follows. 250 μl of a substrate solution containing 100 mM DL-phenylalanine and 50 mM Tris-hydrochloric acid buffer (pH 8.0) was maintained at 30° C. (each temperature for determining the range of operative temperature and the optimal temperature) for 5 min, mixed with 50 μl of an appropriately diluted enzyme solution, and the mixture was reacted at 30° C. (each temperature for determining the range of operative temperature and the optimal temperature) for 5 min. 10 μl of 3N HCl was added to stop the reaction. Then, 500 μl of a chromogenic solution containing 0.80 mM 4-aminoantipyrine, 1.31 mM N-ethyl-N-(2-hydroxy-3-sulfopropyl)-m-toluidine, 6 u/ml peroxidase (manufactured by TOYOBO Inc.) and 50 mM Tris-hydrochloric acid buffer (pH 8.0), which was maintained at 30° C. for 5 min, was mixed with 100 μl of the aforementioned reaction mixture. Absorption at 555 nm was measured, and the amount of hydrogen peroxide produced in the reaction mixture was quantified based on the analytical curve prepared in advance.
The substrate specificity of the purified D-amino acid oxidase was examined. The substrate DL-phenylalanine used in the aforementioned enzyme activity assay was changed to each substrate, and the enzyme activity was measured.

[2] = target: T1, D-amino acid oxidase; assay: Specific activity of purified D-amino acid oxidase (hydrogen peroxide quantified with peroxidase); type: biochemical, Candida intermedia NBRC0761; conditions: 30° C.; 1 unit = 1 μmol hydrogen peroxide in 1 minute; DL-phenylalanine, pH 8.0
Experimental: An enzyme solution is appropriately diluted, mixed with a chromogenic solution containing 50 mM DL-phenylalanine, 0.80 mM 4-aminoantipyrine, 1.31 mM N-ethyl-N-(2-hydroxy-3-sulfopropyl)-m-toluidine, 6 u/ml peroxidase (manufactured by TOYOBO Inc.), and 50 mM Tris-hydrochloric acid buffer (pH 8.0) at 1:5, and reacted at 30° C. for 30 min. The absorbance at 555 nm is measured, and the amount of hydrogen peroxide produced in the reaction mixture is quantified based on the analytical curve prepared in advance. In the embodiment, unless otherwise specified, this method was used to assay the D-amino acid oxidase activity.
The activity of the D-amino acid oxidase was measured by quantifying hydrogen peroxide produced in the reaction by an enzyme method using peroxidase. Hydrogen peroxide was quantified by an enzyme method as follows. […] Absorption at 555 nm was measured, and the amount of hydrogen peroxide produced in the reaction mixture was quantified based on the analytical curve prepared in advance. […] In addition, protein was quantified according to a Bradford method using BSA as a standard protein. […]

[3] = target: T1, D-amino acid oxidase; assay: Range of reaction temperature and pH, optimal temperature and pH; type: biochemical, Candida intermedia NBRC0761
Experimental: as §1
The range of reaction temperature and the optimal temperature were examined.
The range of reaction pH and the optimal pH were examined. […] The enzyme was active at least within the examined range of pH 6-10.5, and the optimal pH was 8.5-9.5.

[4] = target: T1, D-amino acid oxidase; assay: Temperature stability and pH stability (residual activity); type: physicochemical, Candida intermedia NBRC0761
Experimental: as §1
The temperature stability of the enzyme was measured based on the residual activity after a treatment at each temperature for 10 min.
The pH stability was examined. […]

[5] = substrate: N[C@H](Cc1ccccc1)C(=O)O; assay: Measurement of Km value relative to D-Phe; type: biochemical, Candida intermedia NBRC0761; conditions: other: D-Phe as substrate, various substrate concentrations, reciprocal plot (FIG. 2); pH 8.0; 30.0 °C
Experimental: as §1
Using D-Phe as a substrate, the activity was measured at various substrate concentrations and the Km value relative to D-Phe was determined. From the results shown in FIG. 2, the Km value relative to D-Phe was about 1.7 (not less than 1.6 and not more than 1.8) mM.

C[C@H](O)[C@@H](N)C(=O)O [D-Thr]
relative activity (%) [1]: 4.7%

NC(=O)C[C@@H](N)C(=O)O [D-Asn]
relative activity (%) [1]: 5.8%

N[C@H](Cc1c[nH]cn1)C(=O)O [D-His]
relative activity (%) [1]: 4.2%

N[C@H](CO)C(=O)O [D-Ser]
relative activity (%) [1]: 11.3%

C[C@H](N)C(=O)O [L-Ala]
relative activity (%) [1]: 0.0%

CC(C)C[C@@H](N)C(=O)O [D-Leu]
relative activity (%) [1]: 96.7%

NC(=O)CC[C@@H](N)C(=O)O [D-Gln]
relative activity (%) [1]: 5.8%

O=C(O)[C@@H]1CCCN1 [L-Pro]
relative activity (%) [1]: 0.0%

NC(N)=NCCCC(N)C(=O)O [D-Arg]
relative activity (%) [1]: 0.05%

CC(C)[C@@H](N)C(=O)O [D-Val]
relative activity (%) [1]: 27.3%

CCC(C(=O)O)c1ccccc1 (racemic) [DL-α-phenylbutyric acid]
relative activity (%) [1]: 194.7%

N[C@H](Cc1ccc(F)cc1)C(=O)O [D-p-F-Phe]
relative activity (%) [1]: 167.2%

O=C(O)[C@H]1CCCN1 [D-Pro]
relative activity (%) [1]: 44.3%

NCC(=O)O [Gly]
relative activity (%) [1]: 0.0%

CSCC[C@H](N)C(=O)O [L-Met]
relative activity (%) [1]: 0.0%

NC(CCBr)C(=O)O (racemic) [DL-2-amino-4-Br-butyric acid]
relative activity (%) [1]: 17.2%

CSCC[C@@H](N)C(=O)O [D-Met]
relative activity (%) [1]: 100.5%

C[C@@H](N)C(=O)O [D-Ala]
relative activity (%) [1]: 129.1%

N[C@@H](C(=O)O)c1ccc(O)c(O)c1 [D-3,4-dihydroxy-phenylglycine]
relative activity (%) [1]: 5.7%

N[C@H](CCC(=O)O)C(=O)O [D-Glu]
relative activity (%) [1]: 0.0%

CCC[C@H](N)C(=O)O [L-Norvaline]
relative activity (%) [1]: 0.0%

NCCCC[C@@H](N)C(=O)O [D-Lys]
relative activity (%) [1]: 0.0%

CC[C@@H](C)[C@@H](N)C(=O)O [D-Ile]
relative activity (%) [1]: 16.6%

N[C@H](CC(=O)O)C(=O)O [D-Asp]
relative activity (%) [1]: 0.0%

CCCC(N)C(=O)O (racemic) [DL-Norvaline]
relative activity (%) [1]: 93.8%

B1: D-amino acid oxidase (Sungouiella intermedia) (protein)
chain: MSEYVIVGSGIIGLYTGYKLLESGVPGESITVEAEFLPGDESIKYTSPYAGGNFSGITGDDPDSLKFDKHTYENLPKLQKLLGGPLCGLDMLPATEIWDNVKSKKIDSLKQYLKDYQEIEQEELPEGAKFGVKFTTWNFNCPKFLSNVQKYLLSKNVTFIRKNLTHITQAFGPATKCVFNCTGNGARFLGGVQDAKVYPTRGQVVVIKAPHINENMIRWGDNYATYIIKRPYSHDQLILGGFLQKDDWTPDTLSEQTEDILFRTTNLLPKILNQNPHGPNIEDLEIVRVVAGLRPSRHGGVRIEKEVLDGKLLIHNYGAGGYGYQSGLGMADKAVKLALGQSKL
specific activity [2]: 44.8 units/mg protein
optimal pH ([3]; FIG. 4): 8.5-9.5 pH
range of reaction temperature (highly active) ([3]; examined range, activity at 30° C. as 100% (FIG. 3)): 20-60 °C
range of reaction pH (active) ([3]; examined range, activity at pH 8.0 as 100% (FIG. 4)): 6-10.5 pH
pH stability (comparatively stable at) ([4]; residual activity after 30° C. for 16 hr at each pH (FIG. 6)): 7.8-8.7 pH
temperature stability (stable at) ([4]; residual activity after treatment at each temperature for 10 min (FIG. 5)): ≤ 40 °C
Km [5]: 1700 µM
